Test results published in patent publication US20260224547A1, “COMPOSITIONS COMPRISING ANATABINE AND USES THEREOF” (Philip Morris Products S.A., priority 2021, published 2026).

Tested on: HEK-293, SH-SY5Y, primary human keratinocytes, THP-1 differentiated with PMA
Experiment: Transcriptomics (microarray) after anatabine treatment of 4 cell systems
Assay type: cell-based
Conditions: for Fold Change TXNRD1: gene TXNRD1; for Fold Change ZBTB21: gene ZBTB21; for Fold Change ZFAND2A: gene ZFAND2A
Experimental: To investigate the signalling pathways triggered by anatabine, 4 cell systems (HEK-293, SH-SY5Y, primary human keratinocytes, THP-1 differentiated with PMA) were treated with 4 concentrations of anatabine (100, 200, 300, 400 μM) for 6 hours, after which transcriptomics measurements were performed.
HEK-293 is a human embryonic kidney cell line devoid of nicotinic receptors. It can be relatively easily transfected and therefore used as a tool to express various subtypes of nicotinic receptors or reporter genes such as NRF2-driven luciferase, which were also used in this study. HEK-293 were seeded in a cell culture medium consisting of EMEM, 10% FBS, 1% NEAA, 1% Sodium Pyruvate and 1% PenStrep. 60,000 cells were seeded per well of a 96-well plate.
SH-SY5Y is a human bone marrow neuroblastoma cell line that has been used by researchers to investigate the potential anti-inflammatory effect of anatabine. SH-SY5Y were seeded in a cell culture medium consisting of 50% EMEM and 50% Ham's F12 nutrient and including 10% FBS, 1% PenStrep and 1% L-glutamine. 15,000 cells were seeded per well of a 96-well plate.
Primary human keratinocytes have been included as a relevant cell system for skin. The batch of keratinocytes was selected in order to have healthy, non-smoker, 20-60 years old, Caucasian donors. The keratinocytes were seeded in a cell culture medium consisting of KGM-Gold Keratinocyte Growth Medium. 17,500 cells were seeded per well of a 96-well plate.
The human leukaemia-derived monocytic cell line THP-1, is the most widely used in vitro model for primary human macrophage investigations. THP-1 cells were seeded in a cell culture medium consisting of RPMI, 10% FBS and 1% PenStrep and in the presence of 40 ng/ml phorbol 12-myristate 13-acetate (PMA). 100,000 cells were seeded per well of a 96-well plate, having a total volume of […] per well. 48 hours later the medium was changed to the same culture medium but without PMA, and the culture was left to rest for 24 h before treatment.
All four cell systems were seeded in 96 well plates at a total volume of 190 μl per well to allow for a 20× compound stimulation with a volume of 10 μL. 24 hours after seeding—or in the case of THP-1, 24 h after changing to non-PMA medium—four cell systems were stimulated with anatabine (prepared at 20× the corresponding target concentration) to obtain a final molar concentration of 100, 200, 300, 400 μM anatabine.
In order to generate the transcriptomics data, the four cell systems were exposed to various concentrations of anatabine (100, 200, 300, 400 μM) for 6 hours. The transcriptome of the cells was analysed by a microarray-based analysis.
The cells were lysed using RLT BUFFER (Qiagen Hilden, Germany) for all cell types except the keratinocytes which were lysed with QIAZOL LYSIS REAGENT (Qiagen). RNA isolation was performed with RNEASY MICRO KIT (Qiagen). RNA quantification was assessed with a NANODROP 1000 (ThermoFisher Waltham, MA, USA) and quality of the total RNA was verified acquiring a profile with a 2100 BIOANALYZER (Agilent Technologies, Santa Clara, CA, USA), requiring an RIN number greater than 6.0. 50 ng of total RNA were processed as described in the TECAN/NUGEN OVATION RNA AMPLIFICATION SYSTEM V2 (Tecan Mannedorf, Switzerland). Human Genome U133 Plus 2.0 array were used for hybridization on a THERMOFISHER OVEN 645, washed on THERMOFISHER GENECHIP™ FLUIDICS STATIONS 450DX (protocol FS450-0004) and scanned on a THERMOFISHER GENECHIP™ SCANNER 3000 7G.
Quality control check of all chips was done with the BIOCONDUCTOR affyPLM R package version 1.64. Following quality control procedures, differential gene expression analysis was performed using the BIOCONDUCTOR LIMMA R package version 3.44.3. Pairwise comparisons at the gene level, called systems response profiles (SRP), were computed by comparing each concentration-treatment with its respective vehicle control. […]

[1] = cell system THP1, anatabine 200 μM
[2] = cell system THP1, anatabine 300 μM
[3] = cell system THP1, anatabine 400 μM
[4] = cell system HEK293, anatabine 100 μM
[5] = cell system HEK293, anatabine 200 μM
[6] = cell system HEK293, anatabine 300 μM
[7] = cell system HEK293, anatabine 400 μM
[8] = cell system KEAT, anatabine 100 μM
[9] = cell system KEAT, anatabine 200 μM
[10] = cell system KEAT, anatabine 300 μM
[11] = cell system KEAT, anatabine 400 μM
[12] = cell system SHSY5Y, anatabine 100 μM
[13] = cell system SHSY5Y, anatabine 200 μM
[14] = cell system SHSY5Y, anatabine 300 μM
[15] = cell system SHSY5Y, anatabine 400 μM
[16] = cell system THP1, anatabine 100 μM

C1=CCC(c2cccnc2)NC1 (racemic) [anatabine, 1,2,3,6-Tetrahydro-2,3′-bipyridine]
Fold Change (G0S2 gene, SHSY5Y, anatabine 200 μM): −0.07408 | Fold Change (G0S2 gene, SHSY5Y, anatabine 300 μM): −0.1621 | Fold Change (G0S2 gene, SHSY5Y, anatabine 400 μM): −0.6623 | Fold Change (G0S2 gene, THP1, anatabine 100 μM): −0.1613 | Fold Change (G0S2 gene, THP1, anatabine 200 μM): −0.07473 | Fold Change (G0S2 gene, THP1, anatabine 300 μM): −0.2674 | Fold Change (G0S2 gene, THP1, anatabine 400 μM): −0.3675 | Fold Change (GCLM gene, HEK293, anatabine 100 μM): 0.1086 | Fold Change (GCLM gene, HEK293, anatabine 200 μM): 0.5976 | Fold Change (GCLM gene, HEK293, anatabine 300 μM): 0.7652 | Fold Change (GCLM gene, HEK293, anatabine 400 μM): 1.165 | Fold Change (GCLM gene, KEAT, anatabine 100 μM): 0.5698 | Fold Change (GCLM gene, KEAT, anatabine 200 μM): 0.8549 | Fold Change (GCLM gene, KEAT, anatabine 300 μM): 1.582 | Fold Change (GCLM gene, KEAT, anatabine 400 μM): 1.567 | Fold Change (GCLM gene, SHSY5Y, anatabine 100 μM): 0.3907 | Fold Change (GCLM gene, SHSY5Y, anatabine 200 μM): 0.7053 | Fold Change (GCLM gene, SHSY5Y, anatabine 300 μM): 1.629 | Fold Change (GCLM gene, SHSY5Y, anatabine 400 μM): 2.292 | Fold Change (GCLM gene, THP1, anatabine 100 μM): 0.2992 | Fold Change (GCLM gene, THP1, anatabine 200 μM): 0.7816 | Fold Change (GCLM gene, THP1, anatabine 300 μM): 1.645 | Fold Change (GCLM gene, THP1, anatabine 400 μM): 2.36 | Fold Change (HMOX1 gene, HEK293, anatabine 100 μM): 0.7745 | Fold Change (HMOX1 gene, HEK293, anatabine 200 μM): 1.877 | Fold Change (HMOX1 gene, HEK293, anatabine 300 μM): 2.27 | Fold Change (HMOX1 gene, HEK293, anatabine 400 μM): 3.142 | Fold Change (HMOX1 gene, KEAT, anatabine 100 μM): 3.914 | Fold Change (HMOX1 gene, KEAT, anatabine 200 μM): 4.283 | Fold Change (HMOX1 gene, KEAT, anatabine 300 μM): 5.733 | Fold Change (HMOX1 gene, KEAT, anatabine 400 μM): 5.633 | Fold Change (HMOX1 gene, SHSY5Y, anatabine 100 μM): 0.8699 | NRF2 target genes (HMOX1, GCLM, NQO1, TXNRD1) mRNA (four cell lines, 100, 200, 300, 400 μM for 6 hours): dose-dependent increase | Fold Change TXNRD1 [1]: 0.4137 | Fold Change TXNRD1 [2]: 0.8364 | Fold Change TXNRD1 [3]: 1.246 | Fold Change ZBTB21 [4]: 0.1286 | Fold Change ZBTB21 [5]: 0.3704 | Fold Change ZBTB21 [6]: 0.3353 | Fold Change ZBTB21 [7]: 0.6783 | Fold Change ZBTB21 [8]: 0.4558 | Fold Change ZBTB21 [9]: 0.5643 | Fold Change ZBTB21 [10]: 0.9994 | Fold Change ZBTB21 [11]: 0.8602 | Fold Change ZBTB21 [12]: 0.1782 | Fold Change ZBTB21 [13]: 0.5134 | Fold Change ZBTB21 [14]: 0.6287 | Fold Change ZBTB21 [15]: 0.9685 | Fold Change ZBTB21 [16]: −0.01334 | Fold Change ZBTB21 [1]: 0.2576 | Fold Change ZBTB21 [2]: 0.3746 | Fold Change ZBTB21 [3]: 0.5865 | Fold Change ZFAND2A [4]: 0.1376 | Fold Change ZFAND2A [5]: 0.3375 | Fold Change ZFAND2A [6]: 0.4979 | Fold Change ZFAND2A [7]: 0.7014 | Fold Change ZFAND2A [8]: 0.2592 | Fold Change ZFAND2A [9]: 0.4658 | Fold Change ZFAND2A [10]: 3.354 | Fold Change ZFAND2A [11]: 1.766 | Fold Change ZFAND2A [12]: 0.09166 | Fold Change ZFAND2A [13]: 0.3919 | Fold Change ZFAND2A [14]: 0.5328 | Fold Change ZFAND2A [15]: 1.066 | Fold Change ZFAND2A [16]: 0.1252 | Fold Change ZFAND2A [1]: 0.2497 | Fold Change ZFAND2A [2]: 0.5677 | Fold Change ZFAND2A [3]: 1.236
